# Paper PMC8222254, “Self-assembly of an anion receptor with metal-dependent kinase inhibition and potent in vitro anti-cancer properties” (Nature Communications, 2021)
# Assays:
# ARPE-19 [1] = experiment: Metabolic flux analysis (Cell Energy Phenotype Assay, OCR/ECAR); assay type: cell-based, human; parameters: Baseline EACR / Mean Baseline EACR / Stressed OCR / Mean Stressed OCR / Stressed EACR / Mean Stressed EACR / Baseline OCR / Mean Baseline OCR: unit not given here; conditions: for Baseline EACR / Baseline OCR / Stressed EACR / Stressed OCR / Mean Baseline EACR / Mean Baseline OCR / Mean Stressed EACR / Mean Stressed OCR: ARPE19 cells
# Procedure: ARPE-19 and HCT116 cells were seeded in 8-well XFp plates (Agilent) 48 h prior to metabolic flux analyses using the Agilent XFp extracellular flux analyser. Cell seeding densities were 2500 cells/well for ARPE-19 cells and 7500 cells/well for HCT116 cells in order to achieve equivalent cell confluency (~70% confluency and in log phase growth) at the time of analyses. Cells were treated with 25 μM of [L2Zn3]^6+ or solvent control (0.2% DMSO) for 1 h or 20 h before metabolic flux analyses using the Cell Energy Phenotype Assay (Agilent) in accordance with the manufacturer’s instructions. For determination of maximal respiratory and glycolytic rates (metabolic reserve) following real-time quantification of basal respiratory and glycolytic rates, a ‘metabolic stress mix’ of 1 µM oligomycin and FCCP (0.5 µM for ARPE-19, 0.25 µM for HCT116) was injected into the media.
# ARPE-19 [2] = experiment: TSQ cellular localisation / uptake study; assay type: cell-based, human; conditions: ARPE-19, 25μM, 1 hour
# Procedure: (§1) 48 h following cell seeding in Lumox chamber slides (8-well, Sarstedt), cells (ARPE-19 and HCT116 p53^+/+ were treated for 1 h at 37 °C with 25 μM of [L2Zn3]^6+ or DMSO solvent control before removal and washout three times using complete phenol-red free media. 25 μM TSQ (Enzo Life Sciences) was then added for 30 min for detection of cellular zinc before its washout (three washes) and analyses by confocal microscopy (Zeiss LSM880).
# HCT116 p53+/+ = experiment: TSQ cellular localisation / uptake study; assay type: cell-based, human; conditions: 25μM, 1 hour
# Procedure: as §1
# [3] = system: recombinant human AMPK (pT172 AMPKα1, pS108 AMPKβ1); experiment: In vitro phosphatase assay with recombinant kinase, immunoblotting; assay type: biochemical; conditions: 50µM
# Procedure: (§2) 800 ng of purified recombinant human AMPK (α1β2γ1) or Src kinase (MRC PPU, International Centre for Kinase Profiling, University of Dundee) was incubated with 50 μM [L2Cu3]^6+, [L2Zn3]^6+, or vehicle control in 50 mM Tris HCl pH 7.5 containing 50 μM ATP for 4 h at 37 °C. For [L2Zn3]^6+ time course and concentration titration experiments, 800 ng recombinant human AMPK was used (α1β2γ1 AMPK isoform for pT172 AMPKα1 detection or α2β1γ1 AMPK isoform for pS108 AMPKβ1 detection). For evaluation of ATP dependency and influence of AMP, 50 µM ATP was replaced with 50 µM AMP or omitted. Reactions were stopped by addition of Laemmli’s buffer (Biorad) to 1x and heating at 95 °C for 5 min before analysis by SDS PAGE and immunoblotting for detection of specific phosphorylated amino acids of AMPK and Src proteins.
# (§3) Protein lysates and recombinant proteins were resolved on 15% SDS polyacrylamide gels. Proteins were electroblotted onto nitrocellulose membrane by wet transfer in 1xTris Glycine buffer (Biorad) at 35 mA overnight at room temperature. After blocking of membranes, these were incubated with primary antibody overnight at 4 °C before addition of rabbit or mouse secondary antibody (HRP-conjugated; 1:5000, Dako P0448 or P0260) for 1 h at room temperature and development of blots by enhanced chemiluminescence. Primary antibodies were: anti-Src (total) (Cell Signalling Technology #2123 1:1000), anti-phosphorylated Src (Y527) (Cell Signalling Technology #21055 1:1000), anti-phosphorylated Src (Y416) (Cell Signalling Technology #69435 1:1000), anti-AMPKα (total) (Cell Signalling Technology #2532 1:1000), anti-phosphorylated AMPKα (T172) (Cell Signalling Technology #2535 1:1000), anti-AMPKβ1 (total) (Cell Signalling Technology #4150 1:1000), anti-phosphorylated AMPKβ1 (S108) (abcam ab156890 1:500), anti-phospho-Tyr (pan) (Cell Signalling Technology #8954 1:2000), anti-p53 (Santa Cruz, DO-1 clone, 1:1000,), anti-phosphorylated LDH-A (Y10) (Cell Signalling Technology #8176 1:1000), anti-LDH-A/B (total) (abcam ab134187 1:5000), anti-β-actin (Merck MAB1501, 1:40,000). Quantification of signals was performed by densitometry using Image J software. Uncropped and unprocessed scans are provided in the Source Data file.
# Src = biological target: T1, Src (Homo sapiens, UniProt P12931); experiment: as above; assay type: biochemical; conditions: 50 μM complex, 4 h, with ATP
# T1 construct: His tag (N); host or cells: baculovirus expression system
# T1 sequence (P12931 whole entry): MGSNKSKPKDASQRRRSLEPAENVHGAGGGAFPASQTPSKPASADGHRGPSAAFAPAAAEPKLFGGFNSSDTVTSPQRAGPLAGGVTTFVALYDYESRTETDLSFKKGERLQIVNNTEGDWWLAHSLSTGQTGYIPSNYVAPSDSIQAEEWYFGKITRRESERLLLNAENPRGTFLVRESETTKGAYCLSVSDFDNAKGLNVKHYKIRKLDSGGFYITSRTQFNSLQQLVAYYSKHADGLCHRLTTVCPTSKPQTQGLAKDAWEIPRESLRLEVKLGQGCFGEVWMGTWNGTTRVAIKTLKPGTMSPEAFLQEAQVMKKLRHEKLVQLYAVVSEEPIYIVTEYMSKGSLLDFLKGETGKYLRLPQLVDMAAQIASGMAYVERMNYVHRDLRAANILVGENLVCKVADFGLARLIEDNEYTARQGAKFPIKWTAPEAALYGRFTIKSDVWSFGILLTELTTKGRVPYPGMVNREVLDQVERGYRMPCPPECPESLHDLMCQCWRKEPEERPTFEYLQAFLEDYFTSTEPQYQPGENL
# Procedure: as §2, §3
# [4] = biological target: recombinant human AMPK (pT172 AMPKα1, pS108 AMPKβ1) (Homo sapiens, UniProt Q9Y478); experiment: as above; assay type: biochemical; conditions: concentration titration 0-50µM
# Chain of recombinant human AMPK (pT172 AMPKα1, pS108 AMPKβ1) (Homo sapiens, UniProt Q9Y478) (Q9Y478 whole entry): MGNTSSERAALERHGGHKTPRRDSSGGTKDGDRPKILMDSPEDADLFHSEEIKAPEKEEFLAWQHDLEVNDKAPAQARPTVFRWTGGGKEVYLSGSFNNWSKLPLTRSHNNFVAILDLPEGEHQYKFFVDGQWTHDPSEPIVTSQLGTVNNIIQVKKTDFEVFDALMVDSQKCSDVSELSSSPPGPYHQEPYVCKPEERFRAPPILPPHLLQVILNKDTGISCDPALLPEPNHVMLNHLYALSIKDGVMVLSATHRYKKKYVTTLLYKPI
# Chain of recombinant human AMPK (pT172 AMPKα1, pS108 AMPKβ1) (Homo sapiens, UniProt Q9Y478) (P54646 whole entry partner): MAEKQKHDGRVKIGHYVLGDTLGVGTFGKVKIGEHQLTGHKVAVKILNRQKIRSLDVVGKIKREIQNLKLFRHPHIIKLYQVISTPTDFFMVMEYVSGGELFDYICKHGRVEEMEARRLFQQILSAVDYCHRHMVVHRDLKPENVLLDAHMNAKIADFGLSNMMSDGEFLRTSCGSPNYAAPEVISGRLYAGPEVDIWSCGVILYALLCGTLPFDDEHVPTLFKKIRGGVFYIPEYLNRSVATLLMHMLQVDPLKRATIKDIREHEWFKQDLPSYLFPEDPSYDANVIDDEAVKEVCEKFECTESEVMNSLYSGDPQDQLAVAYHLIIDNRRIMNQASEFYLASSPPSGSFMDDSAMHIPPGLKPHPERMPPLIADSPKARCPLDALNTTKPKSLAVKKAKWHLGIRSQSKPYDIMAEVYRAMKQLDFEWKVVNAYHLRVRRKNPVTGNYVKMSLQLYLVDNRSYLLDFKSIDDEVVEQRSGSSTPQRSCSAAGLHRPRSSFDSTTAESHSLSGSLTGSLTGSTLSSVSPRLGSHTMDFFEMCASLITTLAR
# Chain of recombinant human AMPK (pT172 AMPKα1, pS108 AMPKβ1) (Homo sapiens, UniProt Q9Y478) (P54619 whole entry partner): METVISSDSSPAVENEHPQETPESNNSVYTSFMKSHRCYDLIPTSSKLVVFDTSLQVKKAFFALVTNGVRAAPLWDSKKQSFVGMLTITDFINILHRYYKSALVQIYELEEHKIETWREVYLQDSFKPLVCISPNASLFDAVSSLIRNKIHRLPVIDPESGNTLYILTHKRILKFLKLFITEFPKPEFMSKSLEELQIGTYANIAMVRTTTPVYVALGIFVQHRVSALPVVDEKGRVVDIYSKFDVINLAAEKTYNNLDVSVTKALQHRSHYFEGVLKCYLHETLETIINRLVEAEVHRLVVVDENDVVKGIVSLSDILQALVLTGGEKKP
# Procedure: as §2, §3
# [5] = 1h exposure, mean of 3 runs (Fig. 9c)
# [6] = 20h exposure, mean of 3 runs (Fig. 9d)
smiles,measurement,setting,value
CC(=O)[O-].CC(=O)[O-].CC(=O)[O-].CC(=O)[O-].CC(=O)[O-].CC(=O)[O-].[Zn+2].[Zn+2].[Zn+2].c1ccc(-c2csc(NCCN(CCNc3nc(-c4ccccn4)cs3)CCNc3nc(-c4ccccn4)cs3)n2)nc1.c1ccc(-c2csc(NCCN(CCNc3nc(-c4ccccn4)cs3)CCNc3nc(-c4ccccn4)cs3)n2)nc1 [[L2Zn3]6+],Baseline EACR,"ARPE-19 [1]; 1h exposure, Run 1 (Fig. 9c)",18.76
same,Baseline OCR,"ARPE-19 [1]; 1h exposure, Run 1 (Fig. 9c)",23.36
same,Stressed EACR,"ARPE-19 [1]; 1h exposure, Run 1 (Fig. 9c)",24.63
same,Stressed OCR,"ARPE-19 [1]; 1h exposure, Run 1 (Fig. 9c)",30.28
same,Baseline EACR,"ARPE-19 [1]; 1h exposure, Run 2 (Fig. 9c)",18.49
same,Baseline OCR,"ARPE-19 [1]; 1h exposure, Run 2 (Fig. 9c)",21.88
same,Stressed EACR,"ARPE-19 [1]; 1h exposure, Run 2 (Fig. 9c)",25.17
same,Stressed OCR,"ARPE-19 [1]; 1h exposure, Run 2 (Fig. 9c)",27.97
same,Baseline EACR,"ARPE-19 [1]; 1h exposure, Run 3 (Fig. 9c)",18.70
same,Baseline OCR,"ARPE-19 [1]; 1h exposure, Run 3 (Fig. 9c)",20.12
same,Stressed EACR,"ARPE-19 [1]; 1h exposure, Run 3 (Fig. 9c)",24.11
same,Stressed OCR,"ARPE-19 [1]; 1h exposure, Run 3 (Fig. 9c)",25.60
same,Mean Baseline EACR,ARPE-19 [1]; [5],18.65
same,Mean Baseline OCR,ARPE-19 [1]; [5],21.79
same,Mean Stressed EACR,ARPE-19 [1]; [5],24.64
same,Mean Stressed OCR,ARPE-19 [1]; [5],27.95
same,Baseline EACR,"ARPE-19 [1]; 20h exposure, Run 1 (Fig. 9d)",13.57
same,Baseline OCR,"ARPE-19 [1]; 20h exposure, Run 1 (Fig. 9d)",9.08
same,Stressed EACR,"ARPE-19 [1]; 20h exposure, Run 1 (Fig. 9d)",15.01
same,Stressed OCR,"ARPE-19 [1]; 20h exposure, Run 1 (Fig. 9d)",12.02
same,Baseline EACR,"ARPE-19 [1]; 20h exposure, Run 2 (Fig. 9d)",10.60
same,Baseline OCR,"ARPE-19 [1]; 20h exposure, Run 2 (Fig. 9d)",7.37
same,Stressed EACR,"ARPE-19 [1]; 20h exposure, Run 2 (Fig. 9d)",11.55
same,Stressed OCR,"ARPE-19 [1]; 20h exposure, Run 2 (Fig. 9d)",9.95
same,Baseline EACR,"ARPE-19 [1]; 20h exposure, Run 3 (Fig. 9d)",12.23
same,Baseline OCR,"ARPE-19 [1]; 20h exposure, Run 3 (Fig. 9d)",7.73
same,Stressed EACR,"ARPE-19 [1]; 20h exposure, Run 3 (Fig. 9d)",13.58
same,Stressed OCR,"ARPE-19 [1]; 20h exposure, Run 3 (Fig. 9d)",9.28
same,Mean Baseline EACR,ARPE-19 [1]; [6],12.13
same,Mean Baseline OCR,ARPE-19 [1]; [6],8.06
same,Mean Stressed EACR,ARPE-19 [1]; [6],13.38
same,Mean Stressed OCR,ARPE-19 [1]; [6],10.41
same,glycolysis (ECAR),"ARPE-19 [1]; ARPE-19, 25 μM, 1 h",unaffected
same,cellular uptake (TSQ fluorescent signal),ARPE-19 [2],increase in TSQ fluorescent signal
same,cellular uptake (TSQ fluorescent signal),HCT116 p53+/+,increase in TSQ fluorescent signal
same,time from which decrease in phosphorylated T172 AMPKα and S108 AMPKβ1 is evident,[3],≥ 2 h
same,decrease in Y527P relative to total Src levels,Src,~ 30%
same,increase in Y416P levels,Src,~ 5 fold
same,concentration from which dephosphorylation is evident,[4],≥ 12.5 µM
